Measured values published in article PMC6072100, “Exploring the links between peptoid antibacterial activity and toxicity” (MedChemComm, 2017).
Square brackets hold non-standard residues; d marks the D form. Peptide text beside a SMILES is read from it. Gly(Nα-4-Cl-benzyl) = O=C(O)CNCc1ccc(Cl)cc1; N(4-F-Bzl)Gly = O=C(O)CNCc1ccc(F)cc1; Gly(N-2-aminoethyl) = NCCNCC(=O)O; Nspe = C[C@H](NCC(=O)O)c1ccccc1; Nlys = NCCCCNCC(=O)O

Assays:
[1] = Skin cell toxicity assay with HaCaT (alamarBlue); type: cell-based, human; conditions: human, HaCaT cells (keratinocytes)
Procedure, shortened: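 HaCaT cells seeded at 2x10^4 per well 24 hours before 1-hour exposure to a 2–100 µM triplicate dilution series in DMEM high glucose with 10% FBS at 37 °C, 5% CO2. Viability assessed with alamarBlue; ED50 defined as dose killing 50% of cells, derived from dose-response data.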

[2] = Cytotoxicity assay with HepG2 (alamarBlue); type: cell-based, human; conditions: human, HepG2 cells
Description: The activity of our peptoid library was assessed against both bacterial and mammalian cells to gain a broader understanding of the factors that lead to effective and selective antimicrobial peptoids. We screened for broad-spectrum antibacterial activity against Gram-negative (Escherichia coli and Pseudomonas aeruginosa) and Gram-positive (Staphylococcus aureus and S. epidermidis) bacteria. The toxicity of the library was also assessed against two mammalian cell lines; HaCaT spontaneously transformed aneuploid keratinocytes were employed to model toxicity against human skin cells and HepG2, a cell line derived from a human liver carcinoma, were used as a study on polarised human hepatocytes. Detailed methods for these assays can be found in the ESI. ^‡ […]
Please note – ED50, the median effective dose, was defined as the dose that kills 50% of cells.
Cytotoxicity analyses were performed in 96-well plates (Costar, Fisher Scientific) using alamarBlue® (Invitrogen) for cell viability detection using a modified protocol as described previously. HepG2 or HaCaT cells were subcultured at 37 °C, 5% CO2 in DMEM high glucose supplemented with heat-inactivated foetal bovine sera (FBS, 10%; Biosera Ltd) and penicillin/streptomycin (P/S, 1%). Cells were counted using a Neubauer Improved Haemocytometer. HepG2 cells were seeded 1 day prior to treatment in 96 well plates at a concentration of 2 × 10^5 cells per mL in 100 μL of medium (2 × 10^4 cells per well). Then cells were pre-incubated with the compounds in triplicate in a dilution series in triplicate from 2–100 μM (5 mM stock solutions in DMSO diluted from 100 μM to 3 μM; untreated cells with DMSO as a negative control) in 50 μl of the media for 1 hour. Afterwards, 40 μL were removed from each well before the addition of 90 μL of the media, followed by incubation for 24 hours at 37 °C, 5% CO2. Then, 10 μL of alamarBlue® (Invitrogen) was added to each well before a 2 hour incubation prior to assessing cell viability using a fluorescent plate reader (Biotek; Ex 560 nm/Em 600 nm). All data were measured in triplicate on a minimum of two occasions to ensure a robust data set was collected. The ED50 values were calculated from the dose response results achieved from the serial dilutions.
Cytotoxicity assay with HepG2
Cytotoxicity analyses were performed in 96-well plates (Costar, Fisher Scientific) using alamarBlue® (Invitrogen) for cell viability detection using a modified protocol as previously described. The HepG2 cells were grown at 37 °C, 5% CO2 in DMEM high glucose supplemented with heat-inactivated foetal bovine sera (FBS, 10%; Biosera Ltd) and penicillin/streptomycin (P/S, 1%). Cells were counted using a Neubauer Improved Haemocytometer. HepG2 cells were seeded 1 day prior to treatment in 96 well plates at a concentration of 2x10^5 cells/mL in 100 µL of medium (2x10^4 cells/well). Then cells were pre-incubated with the compounds in triplicate (5 mM stock solutions in DMSO diluted from 100 µM to 3 µM; untreated cells with DMSO as a negative control) in 50 µl of the media for 1 hour.
Afterwards, 40 µL were removed from each well before the addition of 90 µL of the media, followed by incubation for 24 hours at 37 °C, 5% CO2. Then, 10 µL of alamarBlue® (Invitrogen) was added to each well before a 2 hour incubation prior to assessing cell viability using a fluorescent plate reader (Biotek; Ex 560 nm / Em 600 nm). All data was measured in triplicate on a minimum of two occasions to ensure a robust data set was collected. The ED50 values were calculated from the dose response results achieved from the serial dilutions. […]
5% CO2 in DMEM high glucose supplemented with heat-inactivated foetal bovine sera (FBS, 10%; Biosera Ltd) and penicillin/streptomycin (P/S, 1%). Cells were counted using a Neubauer […]
Empty wells were filled with 100 µL PBS. After 24 hours, cells were incubated with the compounds in a dilution series in triplicate from 2 – 100 µM (5 mM stock solutions in DMSO […]

[3] = dose that kills 50% of cells, 2–100 μM, 1 h with compound then 24 h, alamarBlue, read-out: ED50 HaCaT
[4] = dose that kills 50% of cells, 2–100 μM, 1 h with compound then 24 h, alamarBlue, read-out: ED50 HepG2

`C[C@@H](c1ccccc1)N(CC(N)=O)C(=O)CN(C(=O)CN(CCCCCCN)C(=O)CN(C(=O)CN(C(=O)CNCCCCCCN)[C@@H](C)c1ccccc1)[C@@H](C)c1ccccc1)[C@@H](C)c1ccccc1` [Peptoid 12, (NahNspeNspe)2] showed a CC50 at 24 h ([1]; ED50 HaCaT) of 100 µM and a CC50 at 24 h ([2]; ED50 HepG2) of 100 µM.
With `C[C@@H](c1ccccc1)N(CC(N)=O)C(=O)CN(C(=O)CN(CCCCN)C(=O)CN(C(=O)CN(C(=O)CN(CCCCN)C(=O)CN(C(=O)CN(C(=O)CN(CCCCN)C(=O)CN(C(=O)CN(C(=O)CNCCCCN)[C@@H](C)c1ccccc1)[C@@H](C)c1ccccc1)[C@@H](C)c1ccccc1)[C@@H](C)c1ccccc1)[C@@H](C)c1ccccc1)[C@@H](C)c1ccccc1)[C@@H](C)c1ccccc1` [Peptoid 13, (NLysNspeNspe)4] (H-[Nlys][Nspe][Nspe][Nlys][Nspe][Nspe][Nlys][Nspe][Nspe][Nlys][Nspe][Nspe]-NH2) the CC50 at 24 h [1, 3] was 20 µM and the CC50 at 24 h [2, 4] was 29 µM.
In the case of `C[C@@H](c1ccccc1)N(CC(N)=O)C(=O)CN(C(=O)CN(CCCCN)C(=O)CN(C(=O)CN(C(=O)CN(CCCCN)C(=O)CN(C(=O)CN(C(=O)CNCCCCN)[C@@H](C)c1ccccc1)[C@@H](C)c1ccccc1)[C@@H](C)c1ccccc1)[C@@H](C)c1ccccc1)[C@@H](C)c1ccccc1` [Peptoid 14, (NLysNspeNspe)3] (H-[Nlys][Nspe][Nspe][Nlys][Nspe][Nspe][Nlys][Nspe][Nspe]-NH2), the CC50 at 24 h [1, 3] is reported as 100 µM and the CC50 at 24 h [2, 4] is reported as 100 µM.
Compound `C[C@@H](c1ccccc1)N(CC(N)=O)C(=O)CN(C(=O)CN(CCCCN)C(=O)CN(C(=O)CN(C(=O)CNCCCCN)[C@@H](C)c1ccccc1)[C@@H](C)c1ccccc1)[C@@H](C)c1ccccc1` [Peptoid 15, (NLysNspeNspe)2] (H-[Nlys][Nspe][Nspe][Nlys][Nspe][Nspe]-NH2) has a CC50 at 24 h ([1]; ED50 HaCaT) of 100 µM and a CC50 at 24 h ([2]; ED50 HepG2) of 100 µM.
`C[C@@H](c1ccccc1)N(CC(N)=O)C(=O)CN(C(=O)CN(CCN)C(=O)CN(C(=O)CN(C(=O)CN(CCN)C(=O)CN(C(=O)CN(C(=O)CN(CCN)C(=O)CN(C(=O)CN(C(=O)CNCCN)[C@@H](C)c1ccccc1)[C@@H](C)c1ccccc1)[C@@H](C)c1ccccc1)[C@@H](C)c1ccccc1)[C@@H](C)c1ccccc1)[C@@H](C)c1ccccc1)[C@@H](C)c1ccccc1` [Peptoid 16, (NaeNspeNspe)4] (H-[Gly(N-2-aminoethyl)][Nspe][Nspe][Gly(N-2-aminoethyl)][Nspe][Nspe][Gly(N-2-aminoethyl)][Nspe][Nspe][Gly(N-2-aminoethyl)][Nspe][Nspe]-NH2) showed a CC50 at 24 h ([1]; ED50 HaCaT) of 26 µM and a CC50 at 24 h ([2]; ED50 HepG2) of 41 µM.
In the case of `C[C@@H](c1ccccc1)N(CC(N)=O)C(=O)CN(C(=O)CN(CCN)C(=O)CN(C(=O)CN(C(=O)CN(CCN)C(=O)CN(C(=O)CN(C(=O)CNCCN)[C@@H](C)c1ccccc1)[C@@H](C)c1ccccc1)[C@@H](C)c1ccccc1)[C@@H](C)c1ccccc1)[C@@H](C)c1ccccc1` [Peptoid 17, (NaeNspeNspe)3], the CC50 at 24 h [1, 3] is reported as 100 µM and the CC50 at 24 h [2, 4] is reported as 100 µM.
Compound `C[C@@H](c1ccccc1)N(CC(N)=O)C(=O)CN(C(=O)CN(CCN)C(=O)CN(C(=O)CN(C(=O)CNCCN)[C@@H](C)c1ccccc1)[C@@H](C)c1ccccc1)[C@@H](C)c1ccccc1` [Peptoid 18, (NaeNspeNspe)2] has a CC50 at 24 h ([1]; ED50 HaCaT) of 100 µM and a CC50 at 24 h ([2]; ED50 HepG2) of 100 µM.
`COc1ccc(CN(CC(N)=O)C(=O)CN(Cc2ccc(OC)cc2)C(=O)CN(CCCCN)C(=O)CN(Cc2ccc(OC)cc2)C(=O)CN(Cc2ccc(OC)cc2)C(=O)CN(CCCCN)C(=O)CN(Cc2ccc(OC)cc2)C(=O)CN(Cc2ccc(OC)cc2)C(=O)CN(CCCCN)C(=O)CN(Cc2ccc(OC)cc2)C(=O)CN(Cc2ccc(OC)cc2)C(=O)CNCCCCN)cc1` [Peptoid 19, (NLysNpmbNpmb)4] showed a CC50 at 24 h ([1]; ED50 HaCaT) of 41 µM and a CC50 at 24 h ([2]; ED50 HepG2) of 100 µM.
For `NCCCCNCC(=O)N(CC(=O)N(CC(=O)N(CCCCN)CC(=O)N(CC(=O)N(CC(=O)N(CCCCN)CC(=O)N(CC(=O)N(CC(=O)N(CCCCN)CC(=O)N(CC(=O)N(CC(N)=O)Cc1ccc(Cl)cc1)Cc1ccc(Cl)cc1)Cc1ccc(Cl)cc1)Cc1ccc(Cl)cc1)Cc1ccc(Cl)cc1)Cc1ccc(Cl)cc1)Cc1ccc(Cl)cc1)Cc1ccc(Cl)cc1` [Peptoid 20, (NLysNpcbNpcb)4] (H-[Nlys][Gly(Nα-4-Cl-benzyl)][Gly(Nα-4-Cl-benzyl)][Nlys][Gly(Nα-4-Cl-benzyl)][Gly(Nα-4-Cl-benzyl)][Nlys][Gly(Nα-4-Cl-benzyl)][Gly(Nα-4-Cl-benzyl)][Nlys][Gly(Nα-4-Cl-benzyl)][Gly(Nα-4-Cl-benzyl)]-NH2), the CC50 at 24 h ([1]; ED50 HaCaT) was 18 µM and the CC50 at 24 h ([2]; ED50 HepG2) was 22 µM.
With `NCCCCNCC(=O)N(CC(=O)N(CC(=O)N(CCCCN)CC(=O)N(CC(=O)N(CC(=O)N(CCCCN)CC(=O)N(CC(=O)N(CC(N)=O)Cc1ccc(Cl)cc1)Cc1ccc(Cl)cc1)Cc1ccc(Cl)cc1)Cc1ccc(Cl)cc1)Cc1ccc(Cl)cc1)Cc1ccc(Cl)cc1` [Peptoid 21, (NLysNpcbNpcb)3] (H-[Nlys][Gly(Nα-4-Cl-benzyl)][Gly(Nα-4-Cl-benzyl)][Nlys][Gly(Nα-4-Cl-benzyl)][Gly(Nα-4-Cl-benzyl)][Nlys][Gly(Nα-4-Cl-benzyl)][Gly(Nα-4-Cl-benzyl)]-NH2) the CC50 at 24 h ([1]; ED50 HaCaT) was 22 µM and the CC50 at 24 h ([2]; ED50 HepG2) was 23 µM.
`NCCCCNCC(=O)N(CC(=O)N(CC(=O)N(CCCCN)CC(=O)N(CC(=O)N(CC(=O)N(CCCCN)CC(=O)N(CC(=O)N(CC(=O)N(CCCCN)CC(=O)N(CC(=O)N(CC(N)=O)Cc1ccc(F)cc1)Cc1ccc(F)cc1)Cc1ccc(F)cc1)Cc1ccc(F)cc1)Cc1ccc(F)cc1)Cc1ccc(F)cc1)Cc1ccc(F)cc1)Cc1ccc(F)cc1` [Peptoid 22, (NLysNpfbNpfb)4] (H-[Nlys][N(4-F-Bzl)Gly][N(4-F-Bzl)Gly][Nlys][N(4-F-Bzl)Gly][N(4-F-Bzl)Gly][Nlys][N(4-F-Bzl)Gly][N(4-F-Bzl)Gly][Nlys][N(4-F-Bzl)Gly][N(4-F-Bzl)Gly]-NH2) showed a CC50 at 24 h ([1]; ED50 HaCaT) of 46 µM and a CC50 at 24 h ([2]; ED50 HepG2) of 30 µM.
Compound `NCCCCNCC(=O)N(CC(=O)N(CC(=O)N(CCCCN)CC(=O)N(CC(=O)N(CC(=O)N(CCCCN)CC(=O)N(CC(=O)N(CC(N)=O)Cc1ccc(F)cc1)Cc1ccc(F)cc1)Cc1ccc(F)cc1)Cc1ccc(F)cc1)Cc1ccc(F)cc1)Cc1ccc(F)cc1` [Peptoid 23, (NLysNpfbNpfb)3] (H-[Nlys][N(4-F-Bzl)Gly][N(4-F-Bzl)Gly][Nlys][N(4-F-Bzl)Gly][N(4-F-Bzl)Gly][Nlys][N(4-F-Bzl)Gly][N(4-F-Bzl)Gly]-NH2) has a CC50 at 24 h ([1]; ED50 HaCaT) of 100 µM and a CC50 at 24 h ([2]; ED50 HepG2) of 45 µM.
In the case of `NCCCCNCC(=O)N(CC(=O)N(CC(=O)N(CCCCN)CC(=O)N(CC(=O)N(CC(=O)N(CCCCN)CC(=O)N(CC(=O)N(CC(=O)N(CCCCN)CC(=O)N(CC(=O)N(CC(N)=O)Cc1cccc(F)c1)Cc1cccc(F)c1)Cc1cccc(F)c1)Cc1cccc(F)c1)Cc1cccc(F)c1)Cc1cccc(F)c1)Cc1cccc(F)c1)Cc1cccc(F)c1` [Peptoid 24, (NLysNmfbNmfb)4], the CC50 at 24 h ([1]; ED50 HaCaT) is reported as 25 µM and the CC50 at 24 h ([2]; ED50 HepG2) is reported as 17 µM.
Compound `NCCCCNCC(=O)N(CC(=O)N(CC(=O)N(CCCCN)CC(=O)N(CC(=O)N(CC(=O)N(CCCCN)CC(=O)N(CC(=O)N(CC(N)=O)Cc1cccc(F)c1)Cc1cccc(F)c1)Cc1cccc(F)c1)Cc1cccc(F)c1)Cc1cccc(F)c1)Cc1cccc(F)c1` [Peptoid 25, (NLysNmfbNmfb)3] has a CC50 at 24 h ([1]; ED50 HaCaT) of 64 µM and a CC50 at 24 h ([2]; ED50 HepG2) of 43 µM.
